Assay results as given in patent US20250270246A1, “LINCOSAMIDES AND USES THEREOF” (President and Fellows of Harvard College, priority 2022, published 2025).
Counter-ions that a name gives are not always drawn. Like-named read-outs stand apart in the source and are kept apart here.

How the values were obtained:
Assay type in all cases: cell-based
[1] = tested on: E. coli ATCC 25922 (HAV#006); experiment: MIC by broth microdilution (CLSI); conditions: for MIC: Escherichia coli, ATCC25922, 24 h, read-out: MIC E. coli ATCC 25922
Method in brief: (§1)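 Cation-adjusted Mueller-Hinton medium, Chelex 100 ion-exchange treated where P. aeruginosa was tested. Twofold series 64 down to 0.06 μg/mL, 2.5% DMSO final, 5×10^5 CFU/mL inoculum, 24 h incubation; endpoint is no visible growth.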

[2] = tested on: E. coli HAV#038, ΔTolC; experiment: MIC by broth microdilution (CLSI); conditions: Escherichia coli, 24 h, read-out: MIC E. coli HAV#038, ΔTolC
Method in brief: as §1

[3] = tested on: E. coli HAV#040, LptD; experiment: MIC by broth microdilution (CLSI); conditions: Escherichia coli, 24 h, read-out: MIC E. coli HAV#040, LptD
Method in brief: as §1

[4] = tested on: E. faecium HAV#318, VRE; clinical; experiment: MIC by broth microdilution (CLSI); conditions: Enterococcus faecium, CaMHB, 24 h incubation, read-out: MIC E. faecium HAV#318, VRE
Method in brief: as §1

[5] = tested on: K. oxytoca HAV#450; Clinical; experiment: MIC by broth microdilution (CLSI); conditions: Klebsiella oxytoca, CaMHB, 24 h incubation, read-out: MIC K. oxytoca HAV#450
Method in brief: as §1

[6] = tested on: S. aureus ATCC 29213 (HAV#001); experiment: MIC by broth microdilution (CLSI); conditions: for MIC: Staphylococcus aureus, ATCC29213, 24 h, read-out: MIC S. aureus ATCC 29213
Method in brief: as §1

[7] = tested on: S. aureus HAV#016, MRSA; experiment: MIC by broth microdilution (CLSI); conditions: Staphylococcus aureus, CaMHB, 24 h incubation
Method in brief: as §1

[8] = tested on: S. aureus HAV#202, ATCC 700699; experiment: MIC by broth microdilution (CLSI); conditions: Staphylococcus aureus, ATCC700699, CaMHB, 24 h incubation
Method in brief: as §1

[9] = tested on: S. pneumoniae HAV#003, ATCC 49619; experiment: MIC by broth microdilution (CLSI); conditions: Streptococcus pneumoniae, ATCC49619, CaMHB, 24 h incubation
Method in brief: as §1

[10] = tested on: S. pyogenes HAV#004, ATCC 19615; experiment: MIC by broth microdilution (CLSI); conditions: Streptococcus pyogenes, ATCC19615, CaMHB, 24 h incubation
Method in brief: as §1

[11] = tested on: A. baumannii ATCC 19606 (HAV#010); experiment: MIC by broth microdilution (CLSI); conditions: Acinetobacter baumannii, ATCC19606, 24 h, read-out: MIC A. baumannii ATCC 19606
Method in brief: as §1

[12] = tested on: E. coli Clinical (armA); experiment: MIC by broth microdilution (CLSI); conditions: for MIC: Escherichia coli, 24 h, read-out: MIC E. coli Clinical (armA)
Method in brief: as §1

[13] = tested on: E. coli lptD mutant; experiment: MIC by broth microdilution (CLSI); conditions: CaMHB, 24 h incubation; for MIC E. coli lptD mutant: lptD mutant / ΔlptD mutant, formate salt
Method in brief: as §1

[14] = tested on: E. coli ΔtolC; experiment: MIC by broth microdilution (CLSI); conditions: CaMHB, 24 h incubation; for MIC: Escherichia coli, 24 h, read-out: MIC E. coli ΔtolC, ΔtolC
Method in brief: as §1

[15] = tested on: E. faecalis ATCC 29212 (HAV#005); experiment: MIC by broth microdilution (CLSI); conditions: for MIC: Enterococcus faecalis, ATCC29212, 24 h, read-out: MIC E. faecalis ATCC 29212
Method in brief: as §1

[16] = tested on: E. faecium JMI-990536; experiment: MIC by broth microdilution (CLSI); conditions: Enterococcus faecium, JMI990536, 24 h, read-out: MIC E. faecium JMI-990536
Method in brief: as §1

[17] = tested on: H. influenzae ATCC 49247; experiment: MIC by broth microdilution (CLSI); conditions: Haemophilus influenzae, ATCC49247, 24 h, read-out: MIC H. influenzae ATCC 49247
Method in brief: as §1

[18] = tested on: K. pneumoniae JMI-991193; experiment: MIC by broth microdilution (CLSI); conditions: for MIC: Klebsiella pneumoniae, JMI991193, 24 h, read-out: MIC K. pneumoniae JMI-991193
Method in brief: as §1

[19] = tested on: S. aureus Clinical (cfr); experiment: MIC by broth microdilution (CLSI); conditions: for MIC: Staphylococcus aureus, 24 h, read-out: MIC S. aureus Clinical (cfr)
Method in brief: as §1

[20] = tested on: S. aureus MMX 3035; experiment: MIC by broth microdilution (CLSI); conditions: for MIC: Staphylococcus aureus, MMX3035, 24 h, read-out: MIC S. aureus MMX 3035
Method in brief: as §1

[21] = tested on: S. pneumoniae c-ermB; experiment: MIC by broth microdilution (CLSI); conditions: Streptococcus pneumoniae, 24 h, read-out: MIC S. pneumoniae c-ermB
Method in brief: as §1

[22] = tested on: P. aeruginosa ATCC 27853 (HAV#009); experiment: MIC by broth microdilution (CLSI), Chelex 100-treated broth; conditions: HAV#009, ATCC 27853, CaMHB pre-treated with Chelex 100 ion exchange resin, 24 h
Description: Minimum inhibitory concentrations (MICs) were determined by the broth microdilution method following the Clinical and Laboratory Standards Institute (CLSI) guidelines. Test organisms consisted of standard reference strains from the American Type Culture Collection (ATCC; Manassa, VA, USA) and clinical isolates obtained from JMI Laboratories Inc. (North Liberty, IA, USA), Micromyx repository (MMX; Kalamazoo, MI, USA), and Massachusetts Eye and Ear Hospital (Boston, USA). Before the start of the MIC experiment, standard and test compound stock solutions were prepared in dimethyl sulfoxide (DMSO, Aldrich D2650) at a stock concentration of 2,560 μg/mL. The compound concentration range typically employed for each experiment was 64-0.06 μg/mL (2.5% final DMSO concentration). Iboxamycin was used as a comparator in all experiments. All bacterial strains were sub-cultured on blood agar plates (tryptic soy agar with 5% sheep blood, Hardy Diagnostics) and incubated overnight at 35° C. Organisms were suspended in cation-adjusted Mueller-Hinton broth (CaMHB, BD 212322) and optical density was adjusted to 0.5 McFarland standard. Suspensions were further diluted to obtain a final inoculum of 5×10^5 CFU/mL for broth microdilution experiments. The minimum concentration of compound required to inhibit visible bacterial growth after 24 h of incubation was recorded as the MIC in μg/mL. MICs for P. aeruginosa were recorded in cation-adjusted Mueller-Hinton broth which had been pre-treated with Chelex 100 ion exchange resin according to procedures reported in Ito et al. Antimicrob Agents Chemother (2016) 60 (12), 7396-7401.

[23] = HAV#006, ATCC 25922, CaMHB, 24 h incubation
[24] = HAV#001, ATCC 29213, CaMHB, 24 h incubation
[25] = JMI-991193, CaMHB, 24 h incubation
[26] = Clinical (cfr), CaMHB, 24 h incubation
[27] = MMX 3035, CaMHB, 24 h incubation

Compound	MIC [1, 23] [µg/mL]	MIC [2] [µg/mL]	MIC [3] [µg/mL]	MIC [4] [µg/mL]	MIC [5] [µg/mL]	MIC [6, 24] [µg/mL]	MIC [7] [µg/mL]	MIC [8] [µg/mL]	MIC [9] [µg/mL]	MIC [10] [µg/mL]	MIC [14] [µg/mL]	MIC E. coli lptD mutant [13] [µg/mL]	further results
CC(C)C[C@@H]1CCO[C@@H]2[C@H](CN[C@@H]2C(=O)N[C@@H]2CC/C=C\CSC3OC2C(O)C(O)C3O)C1 (stereo partly drawn) [FSA1503055, (4S,5aS,8S,8aR)-4-isobutyl-N-((1R,8R,9R,10R,11S,12R,Z)-10,11,12-trihydroxy-13-oxa-2-thiabicyclo[7.3.1]tridec-4-en-8-yl) octahydro-2H-oxepino[2,3-c]pyrrole-8-carboxamide formate salt]	> 64	16	64	4	> 64	0.5	0.5	32	0.25	0.125	–	–	–
CC(C)C[C@@H]1CCO[C@@H]2[C@H](CN[C@@H]2C(=O)N[C@@H]2CC/C=C/CS[C@H]3O[C@H]2[C@H](O)[C@H](O)[C@H]3O)C1 [FSA1503054, (4S,5aS,8S,8aR)-4-isobutyl-N-((1R,8R,9R,10R,11S,12R,E)-10,11,12-trihydroxy-13-oxa-2-thiabicyclo[7.3.1]tridec-4-en-8-yl) octahydro-2H-oxepino[2,3-c]pyrrole-8-carboxamide formate salt]	16	1	4	16	32	0.125	0.125	8	≤ 0.03	≤ 0.03	–	–	–
CC(C)C[C@@H]1CCO[C@@H]2[C@H](CN[C@@H]2C(=O)N[C@H]2[C@H]3O[C@H](SC[C@H](F)C/C=C\[C@H]2C)[C@H](O)[C@@H](O)[C@H]3O)C1 [FSA1609033, (4S,5aS,8S,8aR)—N-((1R,4R,8R,9R,10R,11R,12S,13R,Z)-4-fluoro-11,12,13-trihydroxy-8-methyl-14-oxa-2-thiabicyclo[8.3.1]tetradec-6-en-9-yl)-4-isobutyloctahydro-2H-oxepino[2,3-c]pyrrole-8-carboxamide formate salt]	–	–	–	–	–	–	–	–	–	–	≤ 0.06	–	MIC [11]: 1 µg/mL; MIC [1]: 1 µg/mL; MIC [12]: 4 µg/mL; MIC ([13]; Escherichia coli, 24 h, read-out: MIC E. coli lptD mutant, lptD mutant / ΔlptD mutant): 0.125 µg/mL; MIC [15]: ≤ 0.06 µg/mL; MIC [16]: ≤ 0.06 µg/mL; MIC [17]: ≤ 0.06 µg/mL; MIC [18]: 2 µg/mL; MIC [6]: ≤ 0.06 µg/mL; MIC [19]: 0.25 µg/mL; MIC [20]: 0.25 µg/mL; MIC [21]: ≤ 0.03 µg/mL
CC(C)C[C@@H]1CCO[C@@H]2[C@H](CN[C@@H]2C(=O)N[C@@H]2CCCCCS[C@H]3O[C@H]2[C@H](O)[C@H](O)[C@H]3O)C1 [FSA1503058, (4S,5aS,8S,8aR)-4-isobutyl-N-((1R,8R,9R,10R,11S,12R)-10,11,12-trihydroxy-13-oxa-2-thiabicyclo[7.3.1]tridecan-8-yl) octahydro-2H-oxepino[2,3-c]pyrrole-8-carboxamide formate salt]	16	1	4	2	32	0.125	0.125	4	≤ 0.03	≤ 0.03	–	–	–
CC(C)C[C@@H]1CCO[C@@H]2[C@H](CN[C@@H]2C(=O)N[C@@H]2C/C=C/C(CN3CCOCC3)CSC3OC2C(O)C(O)C3O)C1 (single isomer, unassigned) [FSA1608056, formate salt]	–	–	–	–	–	–	–	–	–	–	–	4	MIC E. coli ATCC 25922 ([1]; HAV#006, ATCC 25922, CaMHB, 24 h incubation, formate salt): 64 µg/mL; MIC E. coli Clinical (armA) ([12]; Clinical (armA), CaMHB, 24 h incubation, formate salt): 64 µg/mL; MIC E. coli ΔtolC ([14]; ΔtolC): 16 µg/mL; MIC E. faecalis ATCC 29212 ([15]; HAV#005, ATCC 29212, CaMHB, 24 h incubation, formate salt): 4 µg/mL; MIC K. pneumoniae JMI-991193 [18, 25]: >64 µg/mL; MIC S. aureus ATCC 29213 [6, 24]: 4 µg/mL; MIC S. aureus Clinical (cfr) [19, 26]: >64 µg/mL; MIC S. aureus MMX 3035 [20, 27]: >64 µg/mL; MIC P. aeruginosa ATCC 27853 [22]: 32 µg/mL
CC(C)C[C@@H]1CCO[C@@H]2[C@H](CN[C@@H]2C(=O)N[C@@H]2C/C=C/C(CN3CCOCC3)CSC3OC2C(O)C(O)C3O)C1 (single isomer, unassigned) [FSA1608057, formate salt]	> 64	–	–	–	–	4	–	–	–	–	16	32	MIC ([12]; Clinical (armA), CaMHB, 24 h incubation): > 64 µg/mL; MIC ([15]; HAV#005, ATCC 29212, CaMHB, 24 h incubation): 2 µg/mL; MIC [18, 25]: > 64 µg/mL; MIC [19, 26]: > 64 µg/mL; MIC [20, 27]: > 64 µg/mL; MIC ([22]; Pseudomonas aeruginosa, ATCC27853): 32 µg/mL
